Experimental findings from PMC8981703 (BMC Medicine, 2022) are described below.

The nature of one series: clinical. Type of series: in vivo, human. To be noted: plasma. The procedure:
(§1) Response assessment was performed every 28 days on day 1 of each cycle. Adverse event (AE) was assessed using the NCI Common Terminology Criteria for Adverse Events (CTCAE) version 4.03. […] Plasma concentrations were determined at the following distinct time points: pre-dose, 0.5 h, 1 h, 1.5 h, 2 h, 3 h, 4 h, 5 h, 6 h, 8 h, 10 h, 24 h, and 48 h. Pharmacokinetics ethnicity sensitivity analysis was performed to evaluate the potential impact of ethnic factors on the acceptability and difference in the data of Chinese and western patients.
PK parameters were obtained by analyzing adequate plasma drug concentration data and calculated using the NCA model with Phoenix WinNonlin v8.3.1. The descriptive statistics of PK parameters were summarized using SAS 9.4.

Series [1] deals with Chinese patients with RRMM. As to the kind of experiment: MARCH: safety (TEAEs, CTCAE version 4.03), exposure, dose modification, disposition. Type of series: in vivo. As to the method:
as §1
Patients who received at least 1 dose of study treatment (modified intent-to-treat [mITT]/safety population) were used for efficacy and safety analysis. Demographics, baseline disease characteristics, and prior anti-MM therapies were summarized for the mITT populations. For the primary analysis of ORR, the primary endpoint, the sample size of 82 patients would provide 80% power to detect a statistical significance with the target ORR of 28% against the threshold ORR (i.e., null hypothesis) of 15% (one-sided α=0.025); statistical significance would be declared if the lower bound of the 95% confidence interval (CI) would be greater than 15%. Time to event endpoints including PFS, OS, and DOR were analyzed using the Kaplan-Meier method.

On to `O=C(/C=C\n1cnc(-c2cc(C(F)(F)F)cc(C(F)(F)F)c2)n1)NNc1cnccn1` [selinexor, Selinexor], for which the Tmax in the series “clinical” (human, po, 80 mg, single dose selinexor 80 mg oral, C1D1, read-out: median T max) is 2.88 h. Moreover, in the series “clinical” (human, po, 80 mg, read-out: mean AUC0–48h), the AUC(0-t) was 5800 ng·h/mL. Moreover, the Cmax in the series “clinical” (human, po, 80 mg, read-out: mean C max) came to 862 ng/mL. For the same compound, the half-life in “clinical” (human, po, 80 mg, read-out: mean t 1/2 (converted)) is 6 h. Moreover, in the series “clinical” (single dose selinexor 80 mg oral, C1D1), the “median T max” value was 3 h. The “median number of dose reductions” value in series [1] (among the patients with dose reductions) worked out at 2. In series [1] (in vivo), the “median time to the first dose reduction” value turned out to be 22.0 days, the “patients with a reduction to 80 mg weekly” value amounted to 20.7%, the “patients with a reduction to 100–120 mg weekly” value worked out at 40.2% and the “patients with dose interruptions” value is given as 75.6%. Also, the “patients with dose reductions” value in series [1] (in vivo) worked out at 84.1%.
